In the supplement of paper PMC10290057:

How the values were obtained:
HCT116 [1] = assay: AC50 cell viability (CellTiter-Glo); higher = less potent; details: 48 h
HCT116 [2] = assay: efficacy (fitted maximal change in viability relative to DMSO control); higher = less cytotoxic (negative = loss of viability); details: 48 h
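For AC50 cell viability (CellTiter-Glo) in this document: HCT116 colorectal carcinoma cells screened at five concentrations per compound, luminescent viability scaled between DMSO wells and empty wells on each plate, curves fitted per compound.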
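For efficacy (fitted maximal change in viability relative to DMSO control) in this document: Luminescence-based viability readout, five doses per compound, normalized against on-plate DMSO and empty-well controls, followed by dose-response curve fitting for every drug.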

Structure (SMILES) | AC50 cell viability (HCT116 [1]) [µM] | efficacy (HCT116 [2]) [%]
O=C(Nc1nc2ccccc2n1CCN1CCOCC1)c1cccc([N+](=O)[O-])c1 [IRAK-1-4 Inhibitor I] | 14.8 | -64.8
NC/1=N/C2=C([NH]C=N2)C(=S)N1 [Tioguanine] | 0.742 | -85.8
O=C(Nc1cccc(Cl)c1)Nc1ncc(CCNc2ncnc3ccsc23)s1 [SNS-314] | 18.6 | -91.8
COc1cc(OC)c(/C=C/[S+](=O)([O-])Cc2ccc(OC)c(OP(=O)(O)O)c2)c(OC)c1 [Briciclib] | 0.0468 | -61.6
O=C(NCCCNc1nc(Nc2ccc(N3CCOCC3)cc2)ncc1C1CC1)C1CCC1 | 5.9 | -84.5
CCCCCCC(C)(C)C1=CC2=C([C@H]3CC(=C/CC3C(C)(C)O2)\CO)C(=C1)O (stereo not given in full) [Dexanabinol] | 8.33 | -93.9
C[S+](=O)([O-])CCNCc1ccc(-c2ccc3ncnc(Nc4ccc(OCc5cccc(F)c5)c(Cl)c4)c3c2)o1 [Lapatinib] | 16.6 | -99.2
Cc1ccc(Nc2cc(-c3cccc(N4C(=O)c5ccccc5C4=O)c3)ncn2)cc1N[S+](C)(=O)[O-] [CDK9 Inhibitor] | 20.9 | -73.6
C[C@@H](NC(=O)c1ncnc(N)c1Cl)c1ncc(C(=O)Nc2cc(C(F)(F)F)c(Cl)cn2)s1 [MLN 2480] | 13.2 | -95.4
CCN1CCN(CC1)CC(=O)NC2=CC=C(C3=C2C4=C(S3)C=CC=C4)C5=C6O\C(=C/C(=O)C6=CC=C5)N7CCOCC7 | 1.29 | -81.5
COC1=C(OC)C=C\2C(=C1)C(=O)N(CCCNCCO)\C3=C2C(=O)C4=C3C=C5OCOC5=C4 [LMP-744] | 4.17 | -99.5
CNCc1ccc(-c2cc(-c3nc(-c4ccc([S+](=O)([O-])C(C)C)cc4)cnc3N)on2)cc1 [Berzosertib] | 10.5 | -63
CCN(CC)CCNc1ccc(C)c2sc3ccccc3c(=O)c12 [Lucanthone] | 14.8 | -119
Cc1ccc(C(C)(O)c2nc3ccccc3s2)c(C)c1 (stereo not given) | 16.6 | -43.4
CCC(C)SSc1ncc[nH]1 (stereo not given) [PX-12] | 18.6 | -88.8
c1ccc2c(-c3cnn4cc(-c5ccc(OCCN6CCOCC6)cc5)cnc34)ccnc2c1 | 6.45 | -84.3
C=CCn1c(=O)c2cnc(Nc3ccc(N4CCN(C)CC4)cc3)nc2n1-c1cccc(C(C)(C)O)n1 [MK-1775] | 0.742 | -73.8
C[S+]([O-])c1ccc(-c2nc(-c3ccc(F)cc3)c(-c3ccncc3)[nH]2)cc1 (stereo not given) | 18.6 | -83.2
C=C1CCC2[C@](C)(CO)C(O)CC[C@]2(C)C1C/C=C1/C(=O)OCC1O (stereo not given in full) [Andrographolide] | 7.42 | -65.7
CCOC(=O)c1c(CSc2ccccc2)n(C)c2cc(Br)c(O)c(CN(C)C)c12 [Arbidol] | 14.8 | -75.8
COc1cc2c(Nc3ccc(Br)cc3F)ncnc2cc1OCC1CCN(C)CC1 [Vandetanib] | 14.8 | -108
CC(C)(C)C[C@H]1N[C@@H](C(=O)N[C@H]2CC[C@H](O)CC2)[C@H](c2cccc(Cl)c2F)[C@@]12C(=O)Nc1cc(Cl)ccc12 | 4.17 | -91.1
COc1cc(N2CCC(N)CC2)ccc1Nc1ncc(Cl)c(-c2c[nH]c3ccccc23)n1 [AZD-3463] | 5.9 | -137
CCOC(CN1C(=O)[C@](CC(=O)Nc2ccc(C)cc2)(NC(=O)Nc2ccc(C)cc2)c2ccccc21)OCC [AG-041R] | 23.5 | -78.5
CNCc1ccc(-c2[nH]c3cc(F)cc4c3c2CCNC4=O)cc1 [Rucaparib] | 18.6 | -101
OC(=O)/C1=C/CCN(CCOC(C2=CC=C(C=C2)C(F)(F)F)C3=CC=C(C=C3)C(F)(F)F)C1 [CI-966] | 18.6 | -37.1
CCCc1cc(C(=O)N[C@H](Cc2ccc(-c3cccc(OC(F)(F)F)c3)nc2)C(=O)N[C@@H]2CCNC2)sc1C [AZ-82] | 8.33 | -97.3
C=CC(=O)N1CCC(Oc2cc3c(Nc4ccc(Cl)c(Cl)c4F)ncnc3cc2OC)CC1 [Poziotinib] | 18.6 | -106
CCN1C(=O)C\N=C/2N\C=C(/N=C12)C3=C(C)N=C(C=C3)C4=NN=C[NH]4 [CC-115] | 7.42 | -71
CNC(=O)C1=CC=C(C)C(=C1)N2C(=C/C(=C(/Br)C2=O)OCC3=C(F)C=C(F)C=C3)\C | 16.6 | -41.4
